Measurements taken from PMC6370995, “Phase I study of PF‐04895162, a Kv7 channel opener, reveals unexpected hepatotoxicity in healthy subjects, but not rats or monkeys: clinical evidence of disrupted bile acid homeostasis” (Pharmacology Research & Perspectives, 2019).

What was measured:
[1] = THLE 72 hour cytotoxicity assay based on ATP depletion; type: cell-based; details: human, THLE cells, after 72 hours
Text: […]

BSEP = target: T1, BSEP (Homo sapiens, UniProt O95342); experiment: BSEP inhibition in vesicles using tritium labeled taurocholic acid; type: biochemical
T1 construct: host or cells: Hi5 insect cell membrane vesicles
T1 sequence (O95342 whole entry): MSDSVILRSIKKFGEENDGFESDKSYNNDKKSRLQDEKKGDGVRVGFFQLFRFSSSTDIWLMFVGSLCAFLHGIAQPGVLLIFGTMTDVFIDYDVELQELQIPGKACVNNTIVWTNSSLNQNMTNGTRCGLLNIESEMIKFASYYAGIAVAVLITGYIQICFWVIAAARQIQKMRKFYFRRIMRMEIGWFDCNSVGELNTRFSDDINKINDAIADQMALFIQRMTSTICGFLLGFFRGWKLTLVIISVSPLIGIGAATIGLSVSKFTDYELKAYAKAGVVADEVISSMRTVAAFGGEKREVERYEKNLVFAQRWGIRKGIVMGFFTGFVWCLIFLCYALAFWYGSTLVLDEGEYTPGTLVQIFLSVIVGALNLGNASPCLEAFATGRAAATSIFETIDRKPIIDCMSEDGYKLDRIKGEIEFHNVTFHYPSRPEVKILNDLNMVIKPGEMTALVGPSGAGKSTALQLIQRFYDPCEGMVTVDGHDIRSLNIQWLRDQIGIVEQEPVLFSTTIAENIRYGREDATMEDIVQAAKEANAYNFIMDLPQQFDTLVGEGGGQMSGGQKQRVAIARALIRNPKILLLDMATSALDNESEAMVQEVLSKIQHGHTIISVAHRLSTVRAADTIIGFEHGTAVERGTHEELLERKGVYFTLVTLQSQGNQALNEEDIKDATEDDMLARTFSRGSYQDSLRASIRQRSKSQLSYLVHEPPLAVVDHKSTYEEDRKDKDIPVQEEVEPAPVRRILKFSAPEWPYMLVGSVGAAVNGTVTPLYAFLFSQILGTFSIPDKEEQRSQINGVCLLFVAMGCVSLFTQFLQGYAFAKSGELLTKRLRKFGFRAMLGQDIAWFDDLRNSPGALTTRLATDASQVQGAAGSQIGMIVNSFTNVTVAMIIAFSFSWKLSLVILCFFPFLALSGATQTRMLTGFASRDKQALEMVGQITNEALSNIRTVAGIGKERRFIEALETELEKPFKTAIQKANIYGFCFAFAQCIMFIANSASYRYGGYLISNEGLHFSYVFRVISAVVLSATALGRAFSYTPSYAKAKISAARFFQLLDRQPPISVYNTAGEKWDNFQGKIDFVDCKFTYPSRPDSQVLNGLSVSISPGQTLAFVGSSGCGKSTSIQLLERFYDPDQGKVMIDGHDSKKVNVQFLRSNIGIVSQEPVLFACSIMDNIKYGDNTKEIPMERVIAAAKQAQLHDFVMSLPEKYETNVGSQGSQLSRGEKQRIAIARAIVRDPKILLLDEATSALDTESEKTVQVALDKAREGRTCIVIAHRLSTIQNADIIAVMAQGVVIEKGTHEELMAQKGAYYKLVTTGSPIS
Text: […]

MRP4 = target: T2, MRP4 (Homo sapiens, UniProt O15439); experiment: MRP4 transporter inhibition in vesicles from HEK293 cells; type: biochemical
T2 construct: host or cells: membrane vesicles from HEK293 cells
T2 sequence (O15439 1-1325): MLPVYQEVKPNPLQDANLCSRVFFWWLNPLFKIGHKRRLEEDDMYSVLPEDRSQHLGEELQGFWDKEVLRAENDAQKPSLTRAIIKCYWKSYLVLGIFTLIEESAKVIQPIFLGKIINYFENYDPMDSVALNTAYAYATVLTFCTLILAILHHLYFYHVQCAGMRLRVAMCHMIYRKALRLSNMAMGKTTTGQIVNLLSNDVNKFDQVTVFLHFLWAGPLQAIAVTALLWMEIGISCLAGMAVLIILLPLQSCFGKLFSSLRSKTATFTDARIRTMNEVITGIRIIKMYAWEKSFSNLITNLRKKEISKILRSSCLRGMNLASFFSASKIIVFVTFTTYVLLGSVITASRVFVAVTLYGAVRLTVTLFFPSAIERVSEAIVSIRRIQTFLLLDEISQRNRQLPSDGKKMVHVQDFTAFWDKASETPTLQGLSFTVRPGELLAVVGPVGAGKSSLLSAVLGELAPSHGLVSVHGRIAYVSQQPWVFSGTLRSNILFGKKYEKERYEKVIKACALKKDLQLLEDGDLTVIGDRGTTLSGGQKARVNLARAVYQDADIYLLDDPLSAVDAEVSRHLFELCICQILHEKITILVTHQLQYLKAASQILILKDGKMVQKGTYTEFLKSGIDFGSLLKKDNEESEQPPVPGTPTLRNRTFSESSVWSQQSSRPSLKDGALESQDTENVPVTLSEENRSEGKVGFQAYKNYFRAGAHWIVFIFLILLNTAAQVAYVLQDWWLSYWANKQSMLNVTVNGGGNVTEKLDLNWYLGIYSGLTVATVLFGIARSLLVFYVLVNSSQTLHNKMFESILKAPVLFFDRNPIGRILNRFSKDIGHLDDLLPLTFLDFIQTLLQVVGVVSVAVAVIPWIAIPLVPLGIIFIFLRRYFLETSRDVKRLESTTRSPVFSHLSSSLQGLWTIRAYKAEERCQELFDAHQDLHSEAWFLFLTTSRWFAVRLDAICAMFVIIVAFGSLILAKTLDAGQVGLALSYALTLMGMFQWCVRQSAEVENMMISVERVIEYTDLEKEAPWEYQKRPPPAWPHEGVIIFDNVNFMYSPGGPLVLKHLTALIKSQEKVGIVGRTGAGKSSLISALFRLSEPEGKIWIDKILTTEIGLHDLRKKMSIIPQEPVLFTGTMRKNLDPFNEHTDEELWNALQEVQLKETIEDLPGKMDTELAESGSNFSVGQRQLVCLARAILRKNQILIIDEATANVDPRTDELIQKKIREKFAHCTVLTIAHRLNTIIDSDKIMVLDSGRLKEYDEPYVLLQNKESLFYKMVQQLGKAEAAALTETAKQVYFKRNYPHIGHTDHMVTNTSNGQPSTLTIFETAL
Text: […]

Sprague-Dawley rats = experiment: Preliminary 7-Day Oral Toxicity Study in Rats; type: in vivo; details: for gross pathology: animals with impacted feces / microscopic changes in liver (and kidneys): 7 days; for gross pathology: animals with impacted feces: 10 M per group; for microscopic changes in liver (and kidneys): high-dose animals (300 mg/kg); for ALT: once daily for 7 days, 10 to 300 mg/kg/day PO
cynomolgus monkeys = experiment: 28-day Nasogastric Intubation Toxicity Study in Cynomolgus Monkeys; type: in vivo, cynomolgus monkey
Protocol: A 28-day nasogastric toxicity study was conducted in cynomolgus monkeys at up to 100 mg/kg/day and a 9-month oral toxicity study with a 3-month interim sacrifice was conducted in cynomolgus monkeys at up to 100 mg/kg/day.

## O=C(Cc1ccc(F)cc1)Nn1c(C2CC2)nc2cc(F)ccc2c1=O [PF‐04895162, N‐(2‐cyclopropyl‐7‐fluoro‐4‐oxoquinazolin‐3(4H)‐yl)‐2‐(4‐fluorophenyl)ethanamide]
[1]
  IC50 at 72 h: ~192 µM
BSEP; Hi5 vesicles, N = 4, geometric mean
  IC50: 106 µM
BSEP; initially (single dose)
  ratio of systemic Cmax to BSEP vesicle IC50: 0.12 x
MRP4
  IC50: 121 µM
Sprague-Dawley rats; 100 mg/kg
  gross pathology: animals with impacted feces: 1
Sprague-Dawley rats; 300 mg/kg
  gross pathology: animals with impacted feces: 6
Sprague-Dawley rats; 30, 100, and 300 mg/kg on Day 1 and 300 mg/kg on Day 7
  body temperature: decreased
Sprague-Dawley rats; Days 3, 5, and 7 at 30, 100, and 300 mg/kg
  Body weight gain: suppressed
Sprague-Dawley rats; early in the study, primarily at 300 mg/kg
  clinical signs: tremor, splayed stance, altered gait, piloerection, and mild tremors
Sprague-Dawley rats
  microscopic changes in liver (and kidneys): no microscopic changes in the liver or kidneys
  ALT: dose-dependent increases in ALT
Sprague-Dawley rats; listed as PF-04895162
  microscopic changes in liver (and kidneys): no microscopic changes in the liver
Sprague-Dawley rats; listed as ICA-105665
  ALT: increased in a dose-dependent manner
Cynomolgus monkeys; 30 mg/kg/day, females
  vomitus, incidence: 1/5
Cynomolgus monkeys; 30 mg/kg/day, males
  vomitus, incidence: 1/5
Cynomolgus monkeys; 100 mg/kg/day, 28 days
  parent AUC24 at the end of the study: mild autoinduction of metabolism
Cynomolgus monkeys; 100 mg/kg/day, females
  ataxia, incidence: 2/5
  body tremors, incidence: 3/5
  dilated pupils, incidence: 4/5
  hunched posture, incidence: 3/5
  squinting, incidence: 1/5
  vomitus, incidence: 2/5
Cynomolgus monkeys; 100 mg/kg/day, males
  ataxia, incidence: 2/5
  body tremors, incidence: 4/5
  dilated pupils, incidence: 4/5
  hunched posture, incidence: 3/5
  hypoactivity, incidence: 2/5
  vomitus, incidence: 1/5
Cynomolgus monkeys; 3, 10, 30, 100 mg/kg/day, 28 days
  survival: All animals survived to their scheduled termination
Cynomolgus monkeys; 30 and 100 mg/kg/day, 1, 2, and/or 4 hours post-dose, first day of treatment
  mean body (rectal) temperatures: larger decreases in mean body (rectal) temperatures
Cynomolgus monkeys; 28 days, up to 100 mg/kg/day
  hematology, coagulation, clinical chemistry, macroscopic and microscopic pathology: No effect of treatment
